Experimental data: patent EP0726261A1, “Herbidical 1,2,4 thiadiazoles” (American Cyanamid Company, priority 1995, dated 1996)

Columns and labels:
Type in all cases: in vivo
Alopecurus myosuroides [1] = experiment: Preemergence herbicidal activity (Example 67); parameters: herbicide rating, ALOMY: scale not given here; details: pre, 800 g/ha
Summary of the method: (§1)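 Visual injury ratings are taken about 1-3 weeks after the soil surface of treated cups is sprayed. The spray delivers 800g/ha in a volume equivalent to 400 L/ha from an acetone/surfactant solution diluted with water.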

Setaria viridis [2] = experiment: Preemergence herbicidal activity (Example 67); parameters: herbicide rating, SETVI: scale not given here; details: pre, 800 g/ha
Summary of the method: as §1

Helianthus annuus [3] = experiment: Preemergence herbicidal activity (Example 67); details: pre, 800 g/ha
Summary of the method: as §1

Amaranthus retroflexus [4] = experiment: Preemergence herbicidal activity (Example 67); details: pre, 800 g/ha
Summary of the method: as §1

Chenopodium album [5] = experiment: Preemergence herbicidal activity (Example 67); details: pre, 800 g/ha
Summary of the method: as §1

Veronica persica [6] = experiment: Preemergence herbicidal activity (Example 67); details: pre, 800 g/ha
Summary of the method: as §1

Ipomoea hederacea [7] = experiment: Preemergence herbicidal activity (Example 67); details: pre, 800 g/ha
Summary of the method: as §1

Zea mays [8] = experiment: Preemergence herbicidal activity (Example 67); details: pre, 800 g/ha
Summary of the method: as §1

Abutilon theophrasti [9] = experiment: Preemergence herbicidal activity (Example 67); details: pre, 800 g/ha
Summary of the method: as §1

Galium aparine [10] = experiment: Preemergence herbicidal activity (Example 67); details: pre, 800 g/ha
Summary of the method: as §1

Hordeum vulgare [11] = experiment: Preemergence herbicidal activity (Example 67); parameters: herbicide rating, HORVW: scale not given here; details: pre, 800 g/ha
Summary of the method: as §1

Helianthus annuus [12] = experiment: Postemergence herbicidal activity (Example 67); details: pos, 800 g/ha
Summary of the method: (§2)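 Damage scores are visual ratings taken 10-21 days after a single spray of 800g/ha applied to 3-6 week old seedlings. Compound was formulated in acetone containing 0.5% TRITON X-155 and diluted with water.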

Amaranthus retroflexus [13] = experiment: Postemergence herbicidal activity (Example 67); details: pos, 800 g/ha
Summary of the method: as §2

Chenopodium album [14] = experiment: Postemergence herbicidal activity (Example 67); details: pos, 800 g/ha
Summary of the method: as §2

Veronica persica [15] = experiment: Postemergence herbicidal activity (Example 67); details: pos, 800 g/ha
Summary of the method: as §2

Ipomoea hederacea [16] = experiment: Postemergence herbicidal activity (Example 67); details: pos, 800 g/ha
Summary of the method: as §2

Zea mays [17] = experiment: Postemergence herbicidal activity (Example 67); details: pos, 800 g/ha
Summary of the method: as §2

Hordeum vulgare [18] = experiment: Postemergence herbicidal activity (Example 67); details: pos, 800 g/ha
Summary of the method: as §2

Alopecurus myosuroides [19] = experiment: Postemergence herbicidal activity (Example 67); details: pos, 800 g/ha
Summary of the method: as §2

Setaria viridis [20] = experiment: Postemergence herbicidal activity (Example 67); details: pos, 800 g/ha
Summary of the method: as §2

Triticum aestivum [21] = experiment: Postemergence herbicidal activity (Example 67); details: pos, 800 g/ha
Summary of the method: as §2

Abutilon theophrasti [22] = experiment: Postemergence herbicidal activity (Example 67); details: pos, 800 g/ha
Summary of the method: as §2

Galium aparine [23] = experiment: Postemergence herbicidal activity (Example 67); details: pos, 800 g/ha
Summary of the method: as §2

Triticum aestivum [24] = experiment: Preemergence herbicidal activity (Example 67); parameters: herbicide rating, TRZAW: scale not given here; details: pre, 800 g/ha
Summary of the method: as §1

[25] = rated about 1-3 weeks after treatment

C[C@H](NC(=O)c1nc(-c2cccc(Cl)n2)ns1)c1ccccc1 [Example 46, (S)-3-(6-Chloro-2-pyridyl)-[1,2,4]thiadiazole-5-carboxylic acid, 1-(phenylethyl)amide]
ALO MY rating (Alopecurus myosuroides [1]): 0 | SET VI rating (Setaria viridis [2]): 0 | HEL AN rating (Helianthus annuus [3]): 0 | AMA RE rating (Amaranthus retroflexus [4]): 5 (45-64%) | CHE AL rating (Chenopodium album [5]): 4 (30-44%) | VER PE rating (Veronica persica [6]): 5 (45-64%) | IPO HE rating (Ipomoea hederacea [7]): 0 | ZEA MX rating (Zea mays [8]): 0 | ABU TH rating (Abutilon theophrasti [9]): 0 | GAL AP rating (Galium aparine [10]): 0 | HOR VW rating (Hordeum vulgare [11]): 0 | HEL AN rating (Helianthus annuus [12]): 8 (91-99%) | AMA RE rating (Amaranthus retroflexus [13]): 3 (16-29%) | CHE AL rating (Chenopodium album [14]): 6 (65-79%) | VER PE rating (Veronica persica [15]): 8 (91-99%) | IPO HE rating (Ipomoea hederacea [16]): 8 (91-99%) | ZEA MX rating (Zea mays [17]): 5 (45-64%) | HOR VW rating (Hordeum vulgare [18]): 6 (65-79%) | ALO MY rating (Alopecurus myosuroides [19]): 6 (65-79%) | SET VI rating (Setaria viridis [20]): 8 (91-99%) | TRZ AW rating (Triticum aestivum [21]): 5 (45-64%) | ABU TH rating (Abutilon theophrasti [22]): 8 (91-99%) | GAL AP rating (Galium aparine [23]): 5 (45-64%) | TRZ AW rating (Triticum aestivum [24]): 1 (1-5%)

CC(NC(=O)c1nsc(-c2ccccc2F)n1)c1cccs1 (racemic) [Example 57, (R/S)-5-(2-Fluorophenyl)-[1,2,4]thiadiazole-3-carboxylic acid, [1-(2-thienyl)ethyl]amide]
ALO MY rating (Alopecurus myosuroides [1]): 3 (16-29%) | SET VI rating (Setaria viridis [2]): 2 (6-15%) | HEL AN rating (Helianthus annuus [3]): 0 | AMA RE rating (Amaranthus retroflexus [4]): 4 (30-44%) | CHE AL rating (Chenopodium album [5]): 1 (1-5%) | VER PE rating (Veronica persica [6]): 0 | IPO HE rating (Ipomoea hederacea [7]): 0 | ZEA MX rating (Zea mays [8]): 0 | ABU TH rating (Abutilon theophrasti [9]): 0 | GAL AP rating (Galium aparine [10]): 0 | HOR VW rating (Hordeum vulgare [11]): 0 | HEL AN rating (Helianthus annuus [12]): 8 (91-99%) | AMA RE rating (Amaranthus retroflexus [13]): 7 (80-90%) | CHE AL rating (Chenopodium album [14]): 4 (30-44%) | VER PE rating (Veronica persica [15]): 6 (65-79%) | IPO HE rating (Ipomoea hederacea [16]): 7 (80-90%) | ZEA MX rating (Zea mays [17]): 5 (45-64%) | HOR VW rating (Hordeum vulgare [18]): 4 (30-44%) | ALO MY rating (Alopecurus myosuroides [19]): 4 (30-44%) | SET VI rating (Setaria viridis [20]): 9 (100% effect) | TRZ AW rating (Triticum aestivum [21]): 3 (16-29%) | ABU TH rating (Abutilon theophrasti [22]): 9 (100% effect) | GAL AP rating (Galium aparine [23]): 7 (80-90%) | TRZ AW rating (Triticum aestivum [24]): 2 (6-15%)

C[C@H](NC(=O)c1nc(C=Cc2ccccc2)ns1)c1ccccc1 [Example 30]
herbicide rating, ALOMY (Alopecurus myosuroides [1]; [25]): 0 | herbicide rating, SETVI (Setaria viridis [2]; [25]): 0 | herbicide rating, HELAN (Helianthus annuus [3]; [25]): 0 | herbicide rating, AMARE (Amaranthus retroflexus [4]; [25]): 0 | herbicide rating, CHEAL (Chenopodium album [5]; [25]): 0 | herbicide rating, VERPE (Veronica persica [6]; [25]): 0 | herbicide rating, IPOHE (Ipomoea hederacea [7]; [25]): 0 | herbicide rating, ZEAMX (Zea mays [8]; [25]): 0 | herbicide rating, ABUTH (Abutilon theophrasti [9]; [25]): 2 (6-15%) | herbicide rating, GALAP (Galium aparine [10]; [25]): 0 | herbicide rating, HORVW (Hordeum vulgare [11]; [25]): 0 | herbicide rating, HELAN (Helianthus annuus [12]; rated after 10-21 days): 2 (6-15%) | herbicide rating, AMARE (Amaranthus retroflexus [13]; rated after 10-21 days): 2 (6-15%) | herbicide rating, CHEAL (Chenopodium album [14]; rated after 10-21 days): 4 (30-44%) | herbicide rating, VERPE (Veronica persica [15]; rated after 10-21 days): 0 | herbicide rating, IPOHE (Ipomoea hederacea [16]; rated after 10-21 days): 4 (30-44%) | herbicide rating, ZEAMX (Zea mays [17]; rated after 10-21 days): 0 | herbicide rating, HORVW (Hordeum vulgare [18]; rated after 10-21 days): 0 | herbicide rating, ALOMY (Alopecurus myosuroides [19]; rated after 10-21 days): 1 (1-5%) | herbicide rating, SETVI (Setaria viridis [20]; rated after 10-21 days): 3 (16-29%) | herbicide rating, TRZAW (Triticum aestivum [21]; rated after 10-21 days): 2 (6-15%) | herbicide rating, ABUTH (Abutilon theophrasti [22]; rated after 10-21 days): 3 (16-29%) | herbicide rating, GALAP (Galium aparine [23]; rated after 10-21 days): 4 (30-44%) | herbicide rating, TRZAW (Triticum aestivum [24]; [25]): 0

C[C@H](NC(=O)c1nsc(-c2ccccc2)n1)c1ccccc1 [Example 48, (S)-5-(Phenyl)-[1,2,4]thiadiazole-3-carboxylic acid, 1-(phenylethyl)amide]
ALO MY rating (Alopecurus myosuroides [1]): 0 | SET VI rating (Setaria viridis [2]): 0 | HEL AN rating (Helianthus annuus [3]): 0 | AMA RE rating (Amaranthus retroflexus [4]): 5 (45-64%) | CHE AL rating (Chenopodium album [5]): 0 | VER PE rating (Veronica persica [6]): 5 (45-64%) | IPO HE rating (Ipomoea hederacea [7]): 0 | ZEA MX rating (Zea mays [8]): 0 | ABU TH rating (Abutilon theophrasti [9]): 0 | GAL AP rating (Galium aparine [10]): 0 | HOR VW rating (Hordeum vulgare [11]): 0 | HEL AN rating (Helianthus annuus [12]): 9 (100% effect) | AMA RE rating (Amaranthus retroflexus [13]): 7 (80-90%) | CHE AL rating (Chenopodium album [14]): 7 (80-90%) | VER PE rating (Veronica persica [15]): 8 (91-99%) | IPO HE rating (Ipomoea hederacea [16]): 7 (80-90%) | ZEA MX rating (Zea mays [17]): 5 (45-64%) | HOR VW rating (Hordeum vulgare [18]): 7 (80-90%) | ALO MY rating (Alopecurus myosuroides [19]): 6 (65-79%) | SET VI rating (Setaria viridis [20]): 8 (91-99%) | TRZ AW rating (Triticum aestivum [21]): 5 (45-64%) | ABU TH rating (Abutilon theophrasti [22]): 8 (91-99%) | GAL AP rating (Galium aparine [23]): 7 (80-90%) | TRZ AW rating (Triticum aestivum [24]): 2 (6-15%)
